From patent US20100197688A1, “EPHA4 RTK INHIBITORS FOR TREATMENT OF NEUROLOGICAL AND NEURODEGENERATIVE DISORDERS AND CANCER” (priority 2008, published 2010)

How the values were obtained:
[1] = target: T1, EphA4 kinase (Homo sapiens, UniProt P54764); experiment: EphA4 kinase enzymatic assay (TR-FRET); format: biochemical; conditions: for IC50: 25 μM ATP, recombinant His6-TEV-EphA4 (aa. 615-911); for EphA4 Kinase max inhibition in %: maximum percent inhibition (value in parentheses)
T1 construct: His6-TEV-EphA4 (36 KD) (aa. 615-911); His6 (N); TEV cleavage site (N); made in house; host or cells: Sf9 (baculovirus)
T1 sequence (P54764 615-911): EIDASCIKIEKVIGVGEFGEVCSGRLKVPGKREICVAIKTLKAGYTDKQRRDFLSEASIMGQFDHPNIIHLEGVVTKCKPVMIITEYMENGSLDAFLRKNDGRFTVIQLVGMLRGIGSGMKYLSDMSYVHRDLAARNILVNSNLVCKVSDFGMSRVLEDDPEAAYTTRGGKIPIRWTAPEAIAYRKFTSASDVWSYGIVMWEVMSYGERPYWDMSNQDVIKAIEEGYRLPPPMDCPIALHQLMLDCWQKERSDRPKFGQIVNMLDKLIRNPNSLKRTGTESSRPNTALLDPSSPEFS
Method: Recombinant EphA4 kinase His6-TEV-EphA4 (36 KD) (aa. 615-911) was expressed in Sf9 using baculovirus expression system. Hi-tagged protein was purified by high performance liquid chromatography in two step, using a His Trap HP column and a heparin column. The potency of compounds to inhibit EphA4 kinase phosphorylation was measured by an enzymatic assay based on time resolved fluorescence energy transfer assay format (TR-FRET), using Eu-W1024 anti-pTyr antibody (Perkin Elmer, USA) as a donor and SureLight APC (Perkin Elmer, USA) as an acceptor.
Biotinylated Poly(Glu Tyr) peptide (50 nM) was incubated in 384-well with 25 μM ATP (Sigma) and 10 ng EphA4 kinase in NEBuffer (New England Biolabs) for 60 minutes at rt. The reaction was stopped by 15 mM of EDTA solution for 10 minutes at rt. The detection mixture containing 0.5 nM Eu-W1024 anti-pTyr antibody (Perkin Elmer, USA) and 50 nM SureLight APC (Perkin Elmer, USA) was added to the wells and the plate was incubated for 30 min at rt, while protected from light. Energy transfer signal was measured using a Victor 2V (excitation filter 340, emission filter 615 and 665, delay time 50 μs). Results were expressed as ratios of the absorbencies 665/615.
Compounds were titrated in duplicate at 11 points concentration starting at 100 μM with a 3 fold increment. Compounds were diluted in DMSO. […] Percentage inhibition for each compound was then calculated based on the value of the 100% inhibition. Concentration-response curves were represented and the concentrations for 50% inhibition (IC50) were calculated.

[2] = system: CHO-K1 cells; experiment: Cell viability (Cell Glo) in EphA4 cell assay; format: cell-based, Chinese Hamster
Method: Transfection and Luciferase Assay: CHO-K1 cells were plated in T-175 cell culture bottle in DMEM medium supplemented with 10% fetal bovine serum, 1 mM sodium pyruvate, 2 mM L-glutamine and 1.5 g/L sodium bicarbonate. When cell reached 70-80% confluence, transfections were performed in T-175 culture flasks, using Lipofectamine 2000™ transfection reagent (Invitrogen) according to the manufacturer's directions. For the luciferase assay CHO-K1 cells were co-transfected the next day with […] of pGAS-Luc, 70 mg of EphA4, and 5 mg of empty vector pRL-CMV, which encoded the Renilla luciferase, and was included in the transfection mix for normalization. […] Cells were lysed the next day using the Reporter Lysis Buffer (Promega), and the luciferase activity was measured using the Dual Luciferase Assay (Promega) following the manufacturer's directions. The Firefly and Renilla luminescences are read consecutively on a Top-Count (Perkin-Elmer). Results are expressed as a ratio of the two luminsescence: Firefly Luciferase/Renilla Luciferase. Cell viability was assessed on parallel plates using the Cell Glo Assay (Promega) following the manufacturer's directions. Results are expressed as percent of cell death in comparison with vehicle-treated wells.

[3] = system: C2C12 mouse myoblast cell line; experiment: Scratch wound assay, C2C12 cells; format: cell-based; conditions: for IC50: Mus musculus, C2C12, inflexion point, from AUC of % wound confluence, read-out: Scratch Assay C2C12 Cells IP; for Scratch Assay C2C12 Cells max inhibition in %: value in parentheses
Method: Cell Cultures: C2C12 mouse myoblast cell line (ATCC, VA, USA) was maintained in culture in DMEM media supplemented with 10% fetal bovine serum, 1 mM sodium pyruvate, 1.5 g/L sodium bicarbonate, and 100 IU of penicillin, […] of streptomycin. The cells were then differentiated into myotubes with DMEM supplemented with 2% horse serum for 3 days in 24 well ImageLock™ plate (Essen Instruments, Mich., USA).
Scratch wound assays are commonly used to assess the effects of drugs and drug candidates on the cellular proliferation and/or migration associated with wound closing. The IncuCyte™ system (Essen Instruments, Mich., USA), an automated imaging platform, provides ongoing, real-time images and quantitative data generated throughout the wound-closing process. Cells were maintained in 24 well ImageLock™ (Essen Instruments, Mich., USA) at 37° C. and […], until a confluent monolayer was achieved. A single scratch wound was then created in each well using the Essen Woundmaker™ (Essen Instruments, Mich., USA). It induced a mechanical scratch of the cell monolayer using plastic pipette tips (10-20 μl pipette tips, Eppendorff). Dead cells and other debris produced by the scratch were immediately washed with regular growth media. Cells were then treated with pharmacological agents and were placed into the IncuCyte™ at 37° C. and […], for two to three days. During this time, the wound area within each well was repeatedly imaged at fixed time intervals (every three hours). The IncuCyte™ scratch wound software generates a “wound mask” for each well. An initial wound mask is created for the first image (at time 0) that clearly delineates the border of the wound. A revised mask is generated for each subsequent image to track wound closure. Wound closure can be automatically monitored using the wound confluence (% confluence). Wound confluence can be graphed over time to evaluate the characteristics of wound closing in the presence of pharmacological agents.
The calculation of the area under the curve (AUC) of the % confluence function of the time gave a quantitative measurement of compounds efficacy on the scratch wound closing. Compounds were titrated in quadruplicate at 5 points concentration starting at […] with a two-fold increment. The percentage of inhibition was calculated from the AUCs at each dose in comparison with the AUCs of the control wells (1% DMSO). Concentration-response curves were represented and the concentrations at the inflexion point (IP) were calculated. The maximum effect was given by the maximum percent inhibition.

Compound	IC50 [1]	EphA4 Kinase max inhibition in % [1]	Max Toxicity Cell Assay % of cell death ([2]; at 25 μM)	IC50 [3]	Scratch Assay C2C12 Cells max inhibition in % [3]	Max Toxicity Cell Assay % of cell death ([2]; at 50 μM)
Cc1ccc(NC(=O)c2cccc(C(F)(F)F)c2)cc1-c1ccc(-n2cccn2)cc1 [Example 120]	1.59 µM	70%	8% at 25 μM	3.1 µM	43%	–
Cc1ccc(NC(=O)c2cccc(C(F)(F)F)c2)cc1-c1ccc(O)c(NC=O)c1 [Example 133]	4.8 µM	93%	–	6 µM	42%	15% at 50 μM
